Measurements reported in PubChem BioAssay (NCI).
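Grown in 96-well plates, cells were treated for 48 hours with each compound at five concentrations. Insufficient inhibition: endpoint recorded as highest concentration tested. GI50: concentration for 50% inhibition of growth. Definition used: TGI = concentration required for complete inhibition of growth.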

What was measured:
Experiment in all cases: NCI tumour cell line growth inhibition, 48 h
DMS 273 small cell lung = tested on: DMS 273 small cell lung
P388/ADR leukemia = tested on: P388/ADR leukemia
SN12K1 renal = tested on: SN12K1 renal
P388 leukemia = tested on: P388 leukemia
RXF-631 renal = tested on: RXF-631 renal
HS 578T breast = tested on: HS 578T breast

Structure (SMILES) | TGI (DMS 273 small cell lung) [µM] | TGI (HS 578T breast) [µM] | other results
CSc1nc2c(ncn2C2OCC(O)C(O)C2O)c(=O)n1C (centres undefined) | > 100 | – | TGI (P388/ADR leukemia): > 100 µM; TGI (SN12K1 renal): > 100 µM; TGI (P388 leukemia): > 100 µM
O=C(Nc1cccc2c1[nH]c1c(-c3ccccc3)nccc12)c1ccccc1[N+](=O)[O-] | > 100 | – | TGI (RXF-631 renal): > 100 µM
CN1CCN(Cc2ccc(NC(=O)c3cccc(C#Cc4cnc(N)c5ncccc45)c3F)cc2C(F)(F)F)CC1 | – | 8.66 | GI50 (HS 578T breast): 1.29 µM
O=C1C=CC(=O)c2c1ccc1c3ccccc3n(-c3ccccc3[N+](=O)[O-])c21 | – | 36.4 | –
COc1ccc2[nH]c3c(C)c4ccnc(NCCCN(C)CCCNc5ccc6ncn7c8ccccc8c(=O)c5c67)c4c(C)c3c2c1 | – | 25 | –
COc1cccc(NC(=O)C(=O)C(C(=O)c2ccccc2F)C2OC(=O)c3ccccc32)c1 (centres undefined) | > 100 | – | –
COc1cc2c(cc1OC)C(=O)/C(=C/c1cc(OC)c(OC)c(OC)c1)C2 | – | > 100 | –
COC1(O)c2cccc(Cl)c2C(=O)N1C1(C(N)=O)CCCCC1 (centres undefined) | > 100 | – | TGI (P388/ADR leukemia): > 100 µM; TGI (SN12K1 renal): > 100 µM; TGI (P388 leukemia): > 100 µM
NC12CCC(CC1=O)C2 (centres undefined) | – | > 100 | –
O=Cc1ccc(CCl)cc1 | 38.8 | – | TGI (RXF-631 renal): 14.7 µM
